In test [1] the test system is CsgA gene expression (csgBAC promoter-GFP reporter) in E. coli UTI89. The experiment in a line: In vitro live cell fluorescent reporter assay of CsgA transcription (Reporter Assay). It counts as cell-based. In a few lines: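 Compounds at 0.14–100 μM (1% DMSO final) incubated 20 h at 27 °C in YESCA broth with UTI89 carrying a single-copy GFP reporter under the csgBAC intergenic promoter region, inoculum OD600 0.003. Fluorescence normalized to vehicle wells gave IC50 and 50%-of-vehicle concentration; OD600 reduction >10% flagged growth impact.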
In general terms: In a reporter assay the amount or activity of a reporter protein is the signal.

A further test concerns the target T1, E. coli CsgA (Escherichia coli, UniProt P28307).
T1 construct: made in house; host or cells: E. coli NEB 3016 slyD::kan, pET11d
The experiment in a line: In vitro ThioflavinT assay of CsgA aggregation (CsgA ThT Assay). It counts as biochemical. In a few lines:
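Purified C-terminal His-tagged CsgA, monomerised by desalting and 30-kDa filtration, at 2-20 μM with 20-40 μM ThT in 50 mM potassium phosphate pH 7.3, 1% DMSO, compounds 3.125-200 uM; room temperature, fluorescence (ex 438/em 495 nm) read every 15 min. Background-subtracted signal expressed as percent inhibition versus vehicle at 6-6.5 or 8-9 h, or as percent control AUC.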

Where [2] appears, read: read-out: Reporter Assay Abs IC50 (activity range), median Abs IC50 in the CsgA reporter assay, class symbol.
The mark [3] stands for this setting: Escherichia coli, read-out: Reporter Assay Abs IC50 (μM), median Abs IC50 in the CsgA reporter assay, N/A = maximum expression reduction is <50% of control.
Setting [4] is: Escherichia coli, read-out: Reporter Assay Abs IC50, activity range, class symbol.
Where [5] appears, read: read-out: CsgA ThT Assay (2 μM CsgA) % Control Bmax 25 μM, activity range, class symbol, CsgA 2 μM, white plates, compound 25 μM.
[6] abbreviates: read-out: CsgA ThT Assay (2 μM CsgA) % Control Bmax 25 μM, mean Bmax as percentage of DMSO control, CsgA 2 μM, white plates, compound 25 μM.
[7] abbreviates: read-out: CsgA ThT Assay (2 μM CsgA) % Control Bmax 100 μM, activity range, class symbol, CsgA 2 μM, white plates, compound 100 μM.
Where [8] appears, read: read-out: CsgA ThT Assay (2 μM CsgA) % Control Bmax 100 μM, mean Bmax as percentage of DMSO control, CsgA 2 μM, white plates, compound 100 μM.
The mark [9] stands for this setting: read-out: CsgA ThT Assay (10 μM CsgA) % Control AUC at 1005 minutes, 25 μM (activity range), CsgA 10 μM, black plates, compound 25 μM, 1005 minutes, class symbol.
The mark [10] stands for this setting: read-out: CsgA ThT Assay (10 μM CsgA) % Control AUC at 1005 minutes, 25 μM, mean AUC as % of DMSO control, CsgA 10 μM, black plates, compound 25 μM, 1005 minutes.
The mark [11] stands for this setting: read-out: CsgA ThT Assay (10 μM CsgA) % Control AUC at 1005 minutes, 100 μM (activity range), CsgA 10 μM, black plates, compound 100 μM, 1005 minutes, class symbol.
[12] abbreviates: read-out: CsgA ThT Assay (10 μM CsgA) % Control AUC at 1005 minutes, 100 μM, mean AUC as % of DMSO control, CsgA 10 μM, black plates, compound 100 μM, 1005 minutes.
Where [13] appears, read: Escherichia coli, read-out: Reporter Assay Abs IC50 (activity range), median Abs IC50 in the CsgA reporter assay, class symbol.

The values that follow come from US20230131899A1, “INHIBITORS OF MICROBIALLY INDUCED AMYLOID” (Axial Therapeutics, Inc., priority 2020, published 2023).

The term IC50 denotes the concentration needed to halve the response being measured.

Like-named read-outs stand apart in the source and are kept apart here.

T1 sequence (P28307 23-151): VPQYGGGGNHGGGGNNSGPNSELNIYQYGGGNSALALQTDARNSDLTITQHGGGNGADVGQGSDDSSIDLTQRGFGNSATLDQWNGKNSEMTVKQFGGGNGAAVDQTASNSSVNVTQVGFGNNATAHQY

With `CCCCCN1CC(C(=O)O)n2c(c(-c3cccc(C(F)(F)F)c3)c(Cc3cccc4ccccc34)cc2=O)S1(=O)=O` (single isomer, unassigned) [Compound 025b, 8-(naphthalen-1-ylmethyl)-6-oxo-2-pentyl-9-(3-(trifluoromethyl)phenyl)-3,4-dihydro-2H,6H-pyrido[1,2-e][1,2,5]thiadiazine-4-carboxylic acid 1,1-dioxide], the IC50 in test [1] (setting [2]) was 1.3 to 4.5 µM; in test [1] (read-out: Reporter Assay Abs IC50, median Abs IC50 in the CsgA reporter assay, N/A = maximum expression reduction is <50% of control), 2.4 µM. Also, the “CsgA ThT Assay (10 μM CsgA) % Control AUC at 1005 minutes, 25 μM (activity range)” value on E. coli CsgA (CsgA 10 μM, black plates, compound 25 μM, 1005 minutes, class symbol) is “(++) (% control AUC of 31 to 60%)”. Moreover, on E. coli CsgA (CsgA 10 μM, black plates, compound 100 μM, 1005 minutes, class symbol), the “CsgA ThT Assay (10 μM CsgA) % Control AUC at 1005 minutes, 100 μM (activity range)” value is reported as “(+) (% control AUC of greater than 60%)”. Besides, at E. coli CsgA (mean AUC as % of DMSO control, CsgA 10 μM, black plates, compound 25 μM, 1005 minutes), the “CsgA ThT Assay (10 μM CsgA) % Control AUC at 1005 minutes, 25 μM” value was 46%. In addition, the “CsgA ThT Assay (10 μM CsgA) % Control AUC at 1005 minutes, 100 μM” value at E. coli CsgA (mean AUC as % of DMSO control, CsgA 10 μM, black plates, compound 100 μM, 1005 minutes) was determined as 107%.
Regarding `CC(C)(C)c1ccc(CN2CC(C(=O)O)n3c2c(-c2cccc(C(F)(F)F)c2)c(Cc2cccc4ccccc24)c(Cl)c3=O)cc1` (stereo not drawn) [Compound 208, 1-(4-(tert-butyl)benzyl)-6-chloro-7-(naphthalen-1-ylmethyl)-5-oxo-8-(3-(trifluoromethyl)phenyl)-1,2,3,5-tetrahydroimidazo[1,2-a]pyridine-3-carboxylic acid], the IC50 in test [1] (setting [3]) is 1 µM; in test [1] (setting [4]) it was under 1.3 µM. Further, the values for the remaining activity at 25 µM on E. coli CsgA (setting [5]) and on E. coli CsgA (setting [6]) were 31 to 60% and 46%, respectively. Also, the remaining activity at 100 µM at E. coli CsgA (setting [7]) is 11 to 31%; on E. coli CsgA (setting [8]), 25%.
Regarding `Nc1c(Cc2cccc3ccccc23)c(-c2cccc(C(F)(F)F)c2)c2n(c1=O)C(C(=O)O)CS2` (single isomer, unassigned) [Compound 020a, 6-amino-7-(naphthalen-1-ylmethyl)-5-oxo-8-(3-(trifluoromethyl)phenyl)-2,3-dihydro-5H-thiazolo[3,2-a]pyridine-3-carboxylic acid], the IC50 in test [1] (setting [3]) was 4.4 µM; in test [1] (setting [2]), 1.3 to 4.5 µM. In addition, the figures for the remaining activity at 25 µM at E. coli CsgA (setting [9]) and on E. coli CsgA (setting [10]) were 11 to 31% and 27%, respectively. Also, the remaining activity at 100 µM at E. coli CsgA (setting [11]) is 11 to 31%; at E. coli CsgA (setting [12]) it was 20%.
As for `CC(C)CN1CC(C(=O)O)n2c(c(-c3cccc(C(F)(F)F)c3)c(Cc3cccc4ccccc34)c(NC3CCCC3)c2=O)S1(=O)=O` (stereo not drawn) [Compound 145, 7-(cyclopentylamino)-2-isobutyl-8-(naphthalen-1-ylmethyl)-6-oxo-9-(3-(trifluoromethyl)phenyl)-3,4-dihydro-2H,6H-pyrido[1,2-e][1,2,5]thiadiazine-4-carboxylic acid 1,1-dioxide], the IC50 in test [1] (setting [3]) is 2 µM; in test [1] (setting [4]) it was 1.3 to 4.5 µM. For the same compound, the remaining activity at 25 µM was over 60% on E. coli CsgA (setting [5]) and 76% at E. coli CsgA (setting [6]). Also, the remaining activity at 100 µM is 31 to 60% at E. coli CsgA (setting [7]) and 39% on E. coli CsgA (setting [8]).
`O=C(O)C1CNc2c(-c3cccc(C(F)(F)F)c3)c(C(F)(F)c3cccc4ccccc34)cc(=O)n21` (stereo not drawn) [Compound 134, 7-(difluoro(naphthalen-1-yl)methyl)-5-oxo-8-(3-(trifluoromethyl)phenyl)-1,2,3,5-tetrahydroimidazo[1,2-a]pyridine-3-carboxylic acid]: the IC50 in test [1] (setting [3]) was 15.6 µM; in test [1] (setting [4]), over 10 µM. In addition, the remaining activity at 25 µM is over 60% on E. coli CsgA (setting [5]) and 92% on E. coli CsgA (setting [6]). The results for the remaining activity at 100 µM at E. coli CsgA (setting [7]) and on E. coli CsgA (setting [8]) were over 60% and 66%, respectively.
For the compound `CCN1CC(C(=O)O)n2c(c(-c3cccc(C(F)(F)F)c3)c(Cc3cccc4ccccc34)c(N)c2=O)S1(=O)=O` (stereo not drawn) [Compound 092, 7-amino-2-ethyl-8-(naphthalen-1-ylmethyl)-6-oxo-9-(3-(trifluoromethyl)phenyl)-3,4-dihydro-2H,6H-pyrido[1,2-e][1,2,5]thiadiazine-4-carboxylic acid 1,1-dioxide], the IC50 was over 10 µM in test [1] (setting [13]) and 18.8 µM in test [1] (setting [3]). Further, the remaining activity at 25 µM at E. coli CsgA (setting [9]) is over 60%; on E. coli CsgA (setting [10]), 64%. In addition, the remaining activity at 100 µM was 31 to 60% at E. coli CsgA (setting [11]) and 52% on E. coli CsgA (setting [12]).
As to `O=C(O)C1CN(CC2CCCC2)S(=O)(=O)c2c(-c3cccc(C(F)(F)F)c3)c(Cc3cccc4ccccc34)c(NC3CCCC3)c(=O)n21` (stereo not drawn) [Compound 002, 7-(cyclopentylamino)-2-(cyclopentylmethyl)-8-(naphthalen-1-ylmethyl)-6-oxo-9-(3-(trifluoromethyl)phenyl)-3,4-dihydro-2H,6H-pyrido[1,2-e][1,2,5]thiadiazine-4-carboxylic acid 1,1-dioxide], the IC50 in test [1] (setting [3]) was 4.1 µM; in test [1] (setting [4]), 1.3 to 4.5 µM. For the same compound, the remaining activity at 25 µM at E. coli CsgA (setting [5]) was 31 to 60%; on E. coli CsgA (setting [6]), 60%. In addition, the remaining activity at 100 µM is over 60% at E. coli CsgA (setting [7]) and 137% on E. coli CsgA (setting [8]).
Turning to `C=Cc1c(Cc2cccc3ccccc23)c(-c2cccc(C(F)(F)F)c2)c2n(c1=O)C(C(=O)O)CN(C)S2(=O)=O` (stereo not drawn) [Compound 078, 2-methyl-8-(naphthalen-1-ylmethyl)-6-oxo-9-(3-(trifluoromethyl)phenyl)-7-vinyl-3,4-dihydro-2H,6H-pyrido[1,2-e][1,2,5]thiadiazine-4-carboxylic acid 1,1-dioxide], the IC50 in test [1] (setting [13]) was 4.6 to 10 µM; in test [1] (setting [3]), 5.1 µM. Moreover, the remaining activity at 25 µM on E. coli CsgA (setting [9]) is 11 to 31%; at E. coli CsgA (setting [10]), 19%. In addition, the remaining activity at 100 µM was 11 to 31% on E. coli CsgA (setting [11]) and 12% at E. coli CsgA (setting [12]).
As for `Nc1c(Cc2cccc3ccccc23)c(-c2cccc(C(F)(F)F)c2)c2n(c1=O)C(C(=O)O)CN(CCCO)S2(=O)=O` (stereo not drawn) [Compound 097, 7-amino-2-(3-hydroxypropyl)-8-(naphthalen-1-ylmethyl)-6-oxo-9-(3-(trifluoromethyl)phenyl)-3,4-dihydro-2H,6H-pyrido[1,2-e][1,2,5]thiadiazine-4-carboxylic acid 1,1-dioxide], the figures for the IC50 in test [1] (setting [13]) and in test [1] (setting [3]) were over 10 µM and 18.4 µM, respectively. Besides, the remaining activity at 25 µM at E. coli CsgA (setting [9]) is over 60%; on E. coli CsgA (setting [10]), 63%. The remaining activity at 100 µM on E. coli CsgA (setting [11]) is 31 to 60%; at E. coli CsgA (setting [12]), 41%.
Consider `CN(C)Cc1c(Cc2cccc3ccccc23)c(-c2cccc(C(F)(F)F)c2)c2n(c1=O)C(C(=O)O)CN(C)S2(=O)=O` (stereo not drawn) [Compound 108, 7-((dimethylamino)methyl)-2-methyl-8-(naphthalen-1-ylmethyl)-6-oxo-9-(3-(trifluoromethyl)phenyl)-3,4-dihydro-2H,6H-pyrido[1,2-e][1,2,5]thiadiazine-4-carboxylic acid 1,1-dioxide], for which the IC50 is under 1.3 µM in test [1] (setting [13]) and 0.6 µM in test [1] (setting [3]). Further, the remaining activity at 25 µM is 11 to 31% on E. coli CsgA (setting [9]) and 14% on E. coli CsgA (setting [10]). The remaining activity at 100 µM on E. coli CsgA (setting [11]) is 11 to 31%; at E. coli CsgA (setting [12]), 25%.
Take `O=C(O)C1CNc2c(-c3cccc(C(F)(F)F)c3)c(Cc3cccc4ccccc34)c(Br)c(=O)n21` (stereo not drawn) [Compound 133, 6-bromo-7-(naphthalen-1-ylmethyl)-5-oxo-8-(3-(trifluoromethyl)phenyl)-1,2,3,5-tetrahydroimidazo[1,2-a]pyridine-3-carboxylic acid]: the half-inhibitory concentration (IC50) in test [1] (setting [3]) is 3.7 µM; in test [1] (setting [4]), 1.3 to 4.5 µM. Also, the remaining activity at 25 µM at E. coli CsgA (setting [5]) is over 60%; on E. coli CsgA (setting [6]) it was 71%. Besides, the remaining activity at 100 µM on E. coli CsgA (setting [7]) is 31 to 60%; on E. coli CsgA (setting [8]), 36%.
